For test [1], the system named is PC-12. The test is described as follows: Cytoprotective activity against 6-OHDA induced cell death in rat PC-12 cells assessed as increase in viable cells at 10 uM pretreated for 12 hrs followed by 6-OHDA challenge by MTT assay relative to control. The class given is functional.
The test system of test [2] is PC-12. The test is described as follows: Cytoprotective activity against 6-OHDA induced cell death in rat PC-12 cells assessed as decrease in LDH release pretreated for 12 hrs followed by 6-OHDA challenge by LDH assay. The class given is functional, cell-based. The following applies: dose 2.5-10 µM. (In general: LDH in the medium is a marker of cell lysis.)
In test [3] the test system is PC-12. The test is described as follows: Protection against 6-OHDA-induced ROS accumulation in rat PC-12 cells assessed as intracellular ROS level by measuring mean fluorescence intensity pretreated for 12 hrs followed by 6-OHDA challenge by DCFH-DA staining based flow cytometry. The class given is functional, cell-based. The following applies: dose 2.5-10 µM.
For test [4], the system named is PC-12. Nature of the test: Prevention of 6-OHDA-induced calcium overload in rat PC-12 cells assessed as reduction in intracellular free calcium pretreated with compound for 12 hrs followed by 6-OHDA challenge by Fluo-3AM based fluorescence assay. The following applies: dose 2.5-10 µM. Format: functional, cell-based.
The subject of test [5] is PC-12. The test is described as follows: Protection against H2O2-induced apoptosis in rat PC-12 cells assessed as viable cells at 2.5 uM pretreated for 12 hrs followed by H2O2 challenge by annexin V FITC/propidium iodide staining based flow cytometry (reference value: 73.3 %). Format: functional. The following applies: read-out: Activity.
Test [6] relates to PC-12. Nature of the test: Protection against H2O2-induced apoptosis in rat PC-12 cells assessed as necrotic cells at 2.5 uM pretreated for 12 hrs followed by H2O2 challenge by annexin V FITC/propidium iodide staining based flow cytometry (reference value: 3.7 %). The class given is functional.
Test [7] deals with PC-12. Nature of the test: Protection against H2O2-induced apoptosis in rat PC-12 cells assessed as early apoptic cells at 5 uM pretreated for 12 hrs followed by H2O2 challenge by annexin V FITC/propidium iodide staining based flow cytometry (reference value: 2.2 %). Format: functional. Background: Flow cytometry measures light scatter and fluorescence of single cells or particles in a stream.

The test system of test [8] is PC-12. The test is described as follows: Protection against H2O2-induced apoptosis in rat PC-12 cells assessed as early apoptic cells at 10 uM pretreated for 12 hrs followed by H2O2 challenge by annexin V FITC/propidium iodide staining based flow cytometry (reference value: 2.2 %). The class given is functional.
Test [9] relates to PC-12. Nature of the test: Protection against H2O2-induced apoptosis in rat PC-12 cells assessed as late apoptic cells at 10 uM pretreated for 12 hrs followed by H2O2 challenge by annexin V FITC/propidium iodide staining based flow cytometry (reference value: 20.8 %). The class given is functional.
Test [10] relates to PC-12. Nature of the test: Protection against 6-OHDA-induced apoptosis in rat PC-12 cells assessed as viable cells at 2.5 uM pretreated for 12 hrs followed by 6-OHDA challenge by annexin V FITC/propidium iodide staining based flow cytometry (reference value: 76.7 %). Format: functional. Particulars: read-out: Activity.
The subject of test [11] is PC-12. The test is described as follows: Protection against 6-OHDA-induced apoptosis in rat PC-12 cells assessed as early apoptotic cells at 2.5 uM pretreated for 12 hrs followed by 6-OHDA challenge by annexin V FITC/propidium iodide staining based flow cytometry (reference value: 2.4 %). Format: functional.
For test [12], the system named is PC-12. Nature of the test: Protection against 6-OHDA-induced apoptosis in rat PC-12 cells assessed as necrotic cells at 2.5 uM pretreated for 12 hrs followed by 6-OHDA challenge by annexin V FITC/propidium iodide staining based flow cytometry (reference value: 3.7 %). Format: functional.
Test [13] relates to PC-12. The test is described as follows: Protection against 6-OHDA-induced apoptosis in rat PC-12 cells assessed as early apoptotic cells at 5 uM pretreated for 12 hrs followed by 6-OHDA challenge by annexin V FITC/propidium iodide staining based flow cytometry (reference value: 2.4 %). Format: functional.
Test [14] deals with PC-12. The test is described as follows: Protection against 6-OHDA-induced apoptosis in rat PC-12 cells assessed as viable cells at 10 uM pretreated for 12 hrs followed by 6-OHDA challenge by annexin V FITC/propidium iodide staining based flow cytometry (reference value: 76.7 %). Format: functional. The following applies: read-out: Activity.
For test [15], the system named is PC-12. Nature of the test: Protection against 6-OHDA-induced apoptosis in rat PC-12 cells assessed as cell rescue pretreated for 12 hrs followed by 6-OHDA challenge by Hoechst 33342 staining based confocal microscopic analysis. Format: functional. The following applies: dose 2.5-10 µM.
Test [16] relates to PC-12. The test is described as follows: Activation of Keap1-Nrf2-ARE pathway in rat PC-12 assessed as upregulation of HO-1 protein expression measured after 12 hrs by Western blot analysis. The following applies: filed as activator, dose 2.5-10 µM.
Test [17] relates to PC-12. The test is described as follows: Activation of Keap1-Nrf2-ARE pathway in rat PC-12 assessed as upregulation of GCLM protein expression measured after 12 hrs by Western blot analysis. The following applies: filed as activator, dose 2.5-10 µM.
The test system of test [18] is PC-12. The test is described as follows: Activation of Keap1-Nrf2-ARE pathway in rat PC-12 assessed as upregulation of total Nrf2 protein expression at 10 uM measured after 3 hrs by Western blot analysis. The following applies: filed as activator. On the technique in general: Immunoblotting shows a protein as a band on a membrane.
Test [19] concerns PC-12. The test is described as follows: Activation of Keap1-Nrf2-ARE pathway in rat PC-12 assessed as induction of accumulation of Nrf2 in nucleus at 10 uM measured after 3 hrs by Western blot analysis. Particulars: filed as activator.
The test system of test [20] is PC-12. Nature of the test: Activation of Keap1-Nrf2-ARE pathway in rat PC-12 assessed as accumulation of Nrf2 in cytosol at 10 uM measured up to 24 hrs by Western blot analysis. Format: subcellular. Particulars: filed as activator, time hrs <=24.
For test [21], the target named is T1, Nuclear factor erythroid 2-related factor 2 (Mus musculus) (UniProt Q60795).
T1 sequence (whole entry): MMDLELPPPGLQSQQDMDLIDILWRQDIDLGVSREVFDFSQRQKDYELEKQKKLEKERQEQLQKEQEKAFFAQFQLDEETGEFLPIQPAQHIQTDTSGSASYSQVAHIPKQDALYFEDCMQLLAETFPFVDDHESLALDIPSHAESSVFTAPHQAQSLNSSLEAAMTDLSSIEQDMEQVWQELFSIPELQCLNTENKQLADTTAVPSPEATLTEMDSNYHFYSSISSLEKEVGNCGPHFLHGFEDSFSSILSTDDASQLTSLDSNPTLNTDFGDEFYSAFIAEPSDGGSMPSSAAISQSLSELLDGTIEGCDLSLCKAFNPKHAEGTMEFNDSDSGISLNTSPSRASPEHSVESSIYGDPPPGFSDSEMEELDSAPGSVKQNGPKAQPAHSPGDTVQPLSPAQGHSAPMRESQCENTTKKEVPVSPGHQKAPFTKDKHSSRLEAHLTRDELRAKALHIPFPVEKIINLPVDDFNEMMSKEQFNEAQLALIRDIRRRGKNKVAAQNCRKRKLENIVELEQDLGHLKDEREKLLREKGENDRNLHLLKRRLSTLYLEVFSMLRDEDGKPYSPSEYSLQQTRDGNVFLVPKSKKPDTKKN
Nature of the test: Activation of Nrf2 in mouse BV-2 cells assessed as decrease in LPS-induced NO production pretreated with compound for 2 hrs followed by LPS stimulation and further incubated for 18 hrs by Griess reagent based assay. Format: cell-based. Particulars: filed as activator, dose 10.0 µM, time 20.0 hrs.

In test [22] the target is T1, Nuclear factor erythroid 2-related factor 2 (Mus musculus). Nature of the test: Activation of Nrf2 in mouse BV-2 cells assessed as upregulation of HO-1 protein expression after 24 hrs by Western blot analysis. The following applies: filed as activator, dose 2.5-10 µM. Format: cell-based.
Test [23] has the same target. Nature of the test: Activation of Nrf2 in mouse BV-2 cells assessed as upregulation of Nrf2 protein expression after 24 hrs by Western blot analysis. The class given is cell-based. The following applies: filed as activator, dose 2.5-10 µM.
Test [24] relates to BV-2. The test is described as follows: Antiinflammatory activity in mouse BV-2 cells transfected with Nrf2 siRNA assessed as inhibition of LPS-induced IL-6 production at 10 uM pretreated with compound for 2 hrs followed by LPS stimulation and further incubated for 18 hrs. Format: functional, cell-based. Particulars: time 20.0 hrs.

Here are results for 1 molecule from ChEMBL document CHEMBL4811256, “Synthesis and evaluation of multi-target-directed ligands with BACE-1 inhibitory and Nrf2 agonist activities as potential agents against Alzheimer's disease” (Eur J Med Chem, 2021).

Active and inactive are the calls of the source. No cut-off for these calls is given here.

For the molecule `CN1C(N)=N[C@](C)(c2cc(-n3[se]c4cc(F)ccc4c3=O)ccc2F)CS1(=O)=O`, the Activity in [1] is 77%; in test [2], “Dose-Dependent Effect”; in test [3] it was “Dose-Dependent Effect”; in test [4] it was “Dose-Dependent Effect”; in [6], 2.1%; in [7], 1.6%. The Activity in test [8] is 2.1%; in [9], 4.7%; in test [11] it was 2%; in test [12], 3.3%; in [13] it was 2.5%; in test [15], “Dose-Dependent Effect”. Moreover, the Activity result in test [22] and in [23] was “Dose-Dependent Effect” in each case. The viability at 2.5 µM was determined as 83.6% in test [5] and 79.8% in [10]. Besides, the viability at 10 µM in [14] turned out to be 90.5%. Further, the outcome in [16], in test [17], in test [18], in test [19], in test [20] and in test [21] was Active. In addition, the result in [24] was inactive.
